From patent EP1036075B1, “SUBSTITUTED THIAZOLIDINEDIONE AND OXAZOLIDINEDIONE HAVING ANTIDIABETIC, HYPOLIPIDEMIA AND ANTIHYPERTENSIVE PROPERTIES” (Dr. Reddy's Laboratories Ltd., priority 1997, dated 1998)

Tested on: C57BL/KsJ-db/db mice
Assay: Blood sugar and triglycerides lowering activity in db/db mice, oral gavage daily for 6 days
Assay type: in vivo
Conditions: male db/db mice; for Maximum reduction in blood glucose level (%) / Triglyceride lowering (%): oral gavage daily for 6 days
Description: Mutation in colonies of laboratory animals and different sensitivities to dietary regimens have made the development of animal models with non-insulin dependent diabetes associated with obesity and insulin resistance possible. Genetic models such as db/db and ob/ob (See Diabetes, (1982) 31(1) : 1- 6) in mice and fa/fa and zucker rats have been developed by the various laboratories for understanding the pathophysiology of disease and testing the efficacy of new antidiabetic compounds (Diabetes, (1983) 32: 830-838; Annu. Rep. Sankyo Res. Lab. (1994) 46 : 1-57). The homozygous animals, C57 BL/KsJ-db/db mice developed by Jackson Laboratory, US, are obese. hyperglycemic, hyperinsulinemic and insulin resistant (J. Clin. Invest., (1990) 85 : 962-967), whereas heterozygous are lean and normoglycemic. In db/db model, mouse progressively develops insulinopenia with age, a feature commonly observed in late stages of human type II diabetes when blood sugar levels are insufficiently controlled. The state of pancreas and its course vary according to the models. Since this model resembles that of type II diabetes mellitus, the compounds of the present invention were tested for blood sugar and triglycerides lowering activities.
Male C57BL/KsJ-db/db mice of 8 to 14 weeks age, having body weight range of 35 to 60 grams, procured from the Jackson Laboraotory, USA, were used in the experiment. The mice were provided with standard feed (National Institute of Nutrition, Hyderabad, India) and acidified water, ad libitum. The animals having more than 300 mg / dl blood sugar were used for testing. The number of animals in each group was 4.
The random blood sugar and triglyceride levels were measured by collecting blood (100 µl) through orbital sinus, using heparinised capillary in tubes containing EDTA which was centrifuged to obtain plasma. The plasma glucose and triglycerides levels were measured spectrometrically, by glucose oxidase and glycerol-3-PO4 oxidase/peroxidase enzyme (Dr. Reddy's Lab. Diagnostic Division Kits, Hyderabad, India) methods respectively. On 6th day the blood samples were collected one hour after administration of test compounds / vehicle for assessing the biological activity.
Test compounds were suspended on 0.25 % carboxymethyl cellulose and administered to test group at a dose of 1 mg to 100 mg / kg through oral gavage daily for 6 days. The control group received vehicle (dose 10 ml / kg).

Compound: Cc1c(C)c2c(c(C)c1O)CCC(C)(COc1ccc(CC3SC(=O)NC3=O)cc1)O2 (stereo not drawn) [Troglitazone, reference compound]
- reduction in random blood sugar level (100 mg / kg, daily dose, on 6th day): 28%

Compound: O=C1NC(=O)C(Cc2ccc(OCC3NC(=O)c4ccccc4O3)cc2)S1 (stereo not drawn) [Example 3, 5-[4-1[[4-Oxo-3,4-dihydro-(2H)-1,3-benzoxazine-2-yl]methoxy]phenylmethyl]thiazotidin-2,4-dione]
- Maximum reduction in blood glucose level (%) (dose 10 mg/kg/day): 41%
- Triglyceride lowering (%) (dose 10 mg/kg/day): 48%

Compound: CN1C(=O)c2ccccc2NC1COc1ccc(CC2SC(=O)NC2=O)cc1 (stereo not drawn) [Example 12, 5-[4-[[3-Methyl-4-oxo-1,2,3,4-tetrahydro-2-quinazolinyl]methoxy]phenylmethyl] thiazolidin-2,4-dione]
- Maximum reduction in blood glucose level (%) (dose 3 mg/kg/day): 55%
- Triglyceride lowering (%) (dose 3 mg/kg/day): 35%

Compound: CN1C(=O)c2ccccc2N(C)C1COc1ccc(CC2SC(=O)NC2=O)cc1 (stereo not drawn) [Example 11, 5-[4-[[1,3-Dimethyl-4-oxo-1,2,3,4-tetrahydro-2-quinazolinyl]methoxy]phenylmethyl) thiazolidin-2,4-dione]
- Maximum reduction in blood glucose level (%) (dose 1 mg/kg/day): 34%
- Triglyceride lowering (%) (dose 1 mg/kg/day): 28%

Compound: CN1C(=O)c2ccccc2OC1COc1ccc(CC2SC(=O)NC2=O)cc1 (stereo not drawn) [Example 4, 5-[4-[[3-Methyl-4-oxo-3,4-dihydro-(2H)-1,3-benzoxazine-2-yl]methoxy]phenylmethyl] thiazolidin-2,4-dione]
- Maximum reduction in blood glucose level (%) (dose 10 mg/kg/day): 48%
- Triglyceride lowering (%) (dose 10 mg/kg/day): 42%
